System: Arabidopsis thaliana
Test: Arabidopsis thaliana seedling growth on culture medium containing 1 μM atrazine (atrazine tolerance)
Assay type: in vivo
Details: 15 days of incubation
Description: In this context, a mixture of sucrose and putrescine were tested. […] For a first control, no carbohydrate or polyamine were added to the culture medium. For a second control, only sucrose, at a rate of 3%, which is equivalent to a concentration of 87 millimolar, was added thereto. Finally, for a test according to the present invention, sucrose, at a rate of 3% and putrescine, at a rate of 3 to 6 mM, were added to the culture medium. The Petri dishes were stored for 48 hrs at 4° C. and transferred to 22° C. for a photoperiod of 16 hours per day at 4500 lux. The parameters characterizing the plant growth were referenced after 15 days of incubation: the biomass (% fresh weight) and chlorophyll (μg/seedling) produced were determined; the development of the main root (cm) and the secondary root system (primordia/seedlings) were recorded.

**Q.** For CCNc1nc(Cl)nc(NC(C)C)n1 [atrazine, 2-chloro-4-ethylamino-6-isopropylamine-1,3,5-triazine], which “seedling development in the presence of atrazine (FIG. 1)” value (no carbohydrate or polyamine added) is on record?
**A.** unable to develop the photosynthetic apparatus

**Q.** For OC[C@H]1O[C@@](CO)(O[C@H]2O[C@H](CO)[C@@H](O)[C@H](O)[C@H]2O)[C@@H](O)[C@@H]1O [sucrose], which “effect on atrazine inhibition / atrazine resistance, by size of the seedlings (FIG. 1)” value is on record?
**A.** makes it possible to lift the atrazine inhibition effect

From patent US20100323890A1, “METHOD FOR IMPROVING THE RESISTANCE OF PLANTS TO STRESS AND CORRESPONDING PRODUCTS” (priority 2007, published 2010)
